Experimental data published in patent US11629171B2, “Beta-hairpin peptidomimetics” (POLYPHOR AG, priority 2017, dated 2023).
Converted amounts (≈) assume the structure as drawn. Where a SMILES comes first, the peptide text is derived from it. Bridges are numbered along the chain shown (N, C = ends). Roman numbers before positions name the chains, in order. [ ]: non-standard residue; d: D form. The star is where a group is joined. Tle = CC(C)(C)[C@H](N)C(=O)O; dDab = NCC[C@@H](N)C(=O)O; hSer = N[C@@H](CCO)C(=O)O; Nle = CCCC[C@H](N)C(=O)O; Orn = NCCC[C@H](N)C(=O)O; Dab = NCC[C@H](N)C(=O)O; Dap = NC[C@H](N)C(=O)O; OiPr = CC(C)O*

How the values were obtained:
Type in all cases: cell-based
[1] = test system: Escherichia coli ATCC 25922; details: ATCC 25922
Method in brief: (§1)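 Visible-growth endpoint after 18-20 h at 35° C defines the MIC (μg/mL). Setup: CLSI broth microdilution, MH-II cation-adjusted broth with P-80 at 0.002% final, inoculum of approximately 10^6 CFU/mL, two-fold serial peptide dilutions.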

[2] = test system: Klebsiella pneumoniae 968733; details: 968733
Method in brief: as §1

[3] = test system: Enterobacter cloacae 848840; details: 848840
Method in brief: as §1

[4] = test system: Klebsiella pneumoniae SSI #3010; details: SSI #3010
Method in brief: as §1

[5] = test system: Acinetobacter baumannii 872842; details: 872842
Method in brief: as §1

[6] = test system: Acinetobacter baumannii DSM 30008; details: DSM 30008
Method in brief: as §1

Escherichia coli 926415 = details: 926415
Method in brief: as §1

[7] = test system: Pseudomonas aeruginosa ATCC 27853; details: ATCC 27853
Method in brief: as §1

[8] = test system: human red blood cells (hRBC); experiment: Hemolysis; details: red cells of human, 1 h, 200
Method in brief: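 Hemoglobin release from PBS-washed hRBC at 20% (v/v), incubated 1 h at 37° C with peptides at 200 μg/mL, is measured at 540 nm. Values are blank corrected and given as a fraction of Triton X-100 lysis × 100%.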

Structure (SMILES)	MIC [1]	MIC [2]	MIC [3]	MIC [4]	MIC [5]	MIC [6]	MIC (Escherichia coli 926415)	MIC [7]	Hemolysis at 200 μg/mL [8]	Escherichia coli ATCC 25922 MIC [1]	Klebsiella pneumoniae SSI #3010 MIC [4]	Acinetobacter baumannii DSM 30008 MIC [6]	Pseudomonas aeruginosa ATCC 27853 MIC [7]
CC(=O)N[C@H](C(=O)N[C@H]1CSSC[C@@H](C(=O)N[C@@H](CO)C(N)=O)NC(=O)[C@H](C(C)(C)C)NC(=O)[C@H](CO)NC(=O)[C@H](Cc2c[nH]c3ccccc23)NC(=O)[C@H](CCN)NC(=O)[C@@H](CCN)NC(=O)[C@H](CCC(=O)N[C@@H](CCN)C(=O)N[C@H](C(=O)N[C@@H](CN)C(=O)N[C@H]2CCNC(=O)[C@H]([C@@H](C)O)NC(=O)[C@H](CCN)NC(=O)[C@H](CCN)NC(=O)[C@H](CC(C)C)NC(=O)[C@@H](CC(C)C)NC(=O)[C@H](CCN)NC2=O)[C@@H](C)O)NC(=O)[C@H]([C@@H](C)O)NC(=O)[C@H](Cc2ccc(O)cc2)NC1=O)C(C)C [Ex. 252] (I: Ac-VCYTE[dDab][Dab]WS[Tle]CS-NH2 / II: [Dab]T[Dap][Dab][Dab][dL]L[Dab][Dab]T; disulfide I:2-I:11; amide I:5-II:N; lactam II:4-II:C)	0.0625 µg/mL (≈ 0.0258 µM)	0.125 µg/mL (≈ 0.0515 µM)	0.125 µg/mL (≈ 0.0515 µM)	0.03125 µg/mL (≈ 0.0129 µM)	0.0625 µg/mL (≈ 0.0258 µM)	0.0625 µg/mL (≈ 0.0258 µM)	0.125 µg/mL (≈ 0.0515 µM)	0.0625 µg/mL (≈ 0.0258 µM)	2%				
CC(=O)N[C@@H](CCC(=O)O)C(=O)N[C@H](C(=O)N[C@H](C(=O)N[C@@H](Cc1ccc(O)cc1)C(=O)N[C@@H](CN)C(=O)N[C@@H](CCC(=O)N[C@@H](CCN)C(=O)N[C@H](C(=O)N[C@@H](CN)C(=O)N[C@H]1CCNC(=O)[C@H]([C@@H](C)O)NC(=O)[C@H](CCN)NC(=O)[C@H](CCN)NC(=O)[C@H](CC(C)C)NC(=O)[C@@H](CC(C)C)NC(=O)[C@H](CCN)NC1=O)[C@@H](C)O)C(=O)N[C@H](CCN)C(=O)N[C@@H](CCN)C(=O)N[C@@H](Cc1c[nH]c2ccccc12)C(=O)N[C@@H](CO)C(=O)N[C@H](C(=O)N[C@@H](C)C(=O)N[C@@H](CO)C(=O)N[C@@H](CCN)C(N)=O)C(C)(C)C)[C@@H](C)O)C(C)C [Ex. 247] (I: Ac-EVTY[Dap]E[dDab][Dab]WS[Tle]AS[Dab]-NH2 / II: [Dab]T[Dap][Dab][Dab][dL]L[Dab][Dab]T; amide I:6-II:N; lactam II:4-II:C)	0.125 µg/mL (≈ 0.0479 µM)	8 µg/mL (≈ 3.07 µM)	0.25 µg/mL (≈ 0.0958 µM)	0.25 µg/mL (≈ 0.0958 µM)	0.5 µg/mL (≈ 0.192 µM)	0.125 µg/mL (≈ 0.0479 µM)	0.5 µg/mL (≈ 0.192 µM)	0.25 µg/mL (≈ 0.0958 µM)	<1%				
CC(=O)N[C@H](C(=O)N[C@H]1CSSC[C@@H](C(=O)N[C@@H](CO)C(N)=O)NC(=O)[C@H](C(C)C)NC(=O)[C@H](CO)NC(=O)[C@H](Cc2c[nH]c3ccccc23)NC(=O)[C@H](CCC(=O)N[C@@H](CCN)C(=O)N[C@H](C(=O)N[C@@H](CN)C(=O)N[C@H]2CCNC(=O)[C@H]([C@@H](C)O)NC(=O)[C@H](CCN)NC(=O)[C@H](CCN)NC(=O)[C@H](CC(C)C)NC(=O)[C@@H](CC(C)C)NC(=O)[C@H](CCN)NC2=O)[C@@H](C)O)NC(=O)[C@@H](CCN)NC(=O)CNC(=O)[C@H](CO)NC(=O)[C@H](Cc2ccc(O)cc2)NC1=O)C(C)C [Ex. 357] (I: Ac-VCYSG[dDab]EWSVCS-NH2 / II: [Dab]T[Dap][Dab][Dab][dL]L[Dab][Dab]T; disulfide I:2-I:11; amide I:7-II:N; lactam II:4-II:C)		0.5 µg/mL (≈ 0.212 µM)	0.125 µg/mL (≈ 0.0531 µM)		0.25 µg/mL (≈ 0.106 µM)		0.5 µg/mL (≈ 0.212 µM)		<1%	0.0625 µg/mL	0.125 µg/mL	0.0625 µg/mL	0.25 µg/mL
CC(=O)N[C@H](C(=O)N[C@H]1CCNC(=O)C[C@@H](C(=O)N[C@@H](CO)C(N)=O)NC(=O)[C@H](C(C)C)NC(=O)[C@H](CO)NC(=O)[C@H](Cc2c[nH]c3ccccc23)NC(=O)[C@H](CO)NC(=O)[C@@H](CCN)NC(=O)[C@H](CCC(=O)N[C@@H](CCN)C(=O)N[C@H](C(=O)N[C@@H](CN)C(=O)N[C@H]2CCNC(=O)[C@H]([C@@H](C)O)NC(=O)[C@H](CCN)NC(=O)[C@H](CCN)NC(=O)[C@H](CC(C)C)NC(=O)[C@@H](CC(C)C)NC(=O)[C@H](CCN)NC2=O)[C@@H](C)O)NC(=O)[C@H](CN)NC(=O)[C@H](Cc2ccc(O)cc2)NC1=O)C(C)C [Ex. 149] (I: Ac-V[Dab]Y[Dap]E[dDab]SWSVDS-NH2 / II: [Dab]T[Dap][Dab][Dab][dL]L[Dab][Dab]T; lactam I:2-I:11, II:4-II:C; amide I:5-II:N)	0.0625 µg/mL (≈ 0.0263 µM)	0.5 µg/mL (≈ 0.21 µM)	0.125 µg/mL (≈ 0.0526 µM)	0.125 µg/mL (≈ 0.0526 µM)	0.125 µg/mL (≈ 0.0526 µM)	0.0625 µg/mL (≈ 0.0263 µM)	0.25 µg/mL (≈ 0.105 µM)	0.125 µg/mL (≈ 0.0526 µM)	<1%				
CCCC[C@@H]1NC(=O)[C@H](CO)NC(=O)[C@H](Cc2c[nH]c3ccccc23)NC(=O)[C@H](CO)NC(=O)[C@@H](CCN)NC(=O)[C@H](CCC(=O)N[C@@H](CCN)C(=O)N[C@H](C(=O)N[C@@H](CN)C(=O)N[C@H]2CCNC(=O)[C@H]([C@@H](C)O)NC(=O)[C@H](CCN)NC(=O)[C@H](CCN)NC(=O)[C@H](CC(C)C)NC(=O)[C@@H](CC(C)C)NC(=O)[C@H](CCN)NC2=O)[C@@H](C)O)NC(=O)[C@H](CCN)NC(=O)[C@H](Cc2ccc(O)cc2)NC(=O)[C@@H](NC(=O)[C@@H](NC(C)=O)C(C)C)CCNC(=O)CC[C@@H](C(=O)N[C@@H](CO)C(N)=O)NC1=O [Ex. 326] (I: Ac-V[Dab]Y[Dab]E[dDab]SWS[Nle]ES-NH2 / II: [Dab]T[Dap][Dab][Dab][dL]L[Dab][Dab]T; lactam I:2-I:11, II:4-II:C; amide I:5-II:N)		0.5 µg/mL (≈ 0.207 µM)	0.0625 µg/mL (≈ 0.0258 µM)		0.125 µg/mL (≈ 0.0517 µM)		0.125 µg/mL (≈ 0.0517 µM)		<1%	0.0625 µg/mL	0.0625 µg/mL	0.0625 µg/mL	0.0625 µg/mL
CC(=O)N[C@H](C(=O)N[C@H]1CSSC[C@@H](C(=O)N[C@@H](CO)C(=O)OC(C)C)NC(=O)[C@H](C(C)(C)C)NC(=O)[C@H](CO)NC(=O)[C@H](Cc2c[nH]c3ccccc23)NC(=O)[C@H](CO)NC(=O)[C@@H](CCN)NC(=O)[C@H](CCC(=O)N[C@@H](CCN)C(=O)N[C@H](C(=O)N[C@@H](CN)C(=O)N[C@H]2CCNC(=O)[C@H]([C@@H](C)O)NC(=O)[C@H](CCN)NC(=O)[C@H](CCN)NC(=O)[C@H](CC(C)C)NC(=O)[C@@H](CC(C)C)NC(=O)[C@H](CCN)NC2=O)[C@@H](C)O)NC(=O)[C@H](CN)NC(=O)[C@H](Cc2ccc(O)cc2)NC1=O)C(C)C [Ex. 122] (I: Ac-VCY[Dap]E[dDab]SWS[Tle]CS-OiPr / II: [Dab]T[Dap][Dab][Dab][dL]L[Dab][Dab]T; disulfide I:2-I:11; amide I:5-II:N; lactam II:4-II:C)	0.25 µg/mL (≈ 0.102 µM)	2 µg/mL (≈ 0.819 µM)	2 µg/mL (≈ 0.819 µM)	0.5 µg/mL (≈ 0.205 µM)	1 µg/mL (≈ 0.41 µM)	0.25 µg/mL (≈ 0.102 µM)	4 µg/mL (≈ 1.64 µM)	0.5 µg/mL (≈ 0.205 µM)	1%				
CC(=O)N[C@H](C(=O)N[C@H]1CCCNC(=O)[C@@H](CCN)NC(=O)[C@H](C(C)(C)C)NC(=O)[C@H](CO)NC(=O)[C@H](Cc2c[nH]c3ccccc23)NC(=O)[C@H](CCO)NC(=O)[C@@H](CCN)NC(=O)[C@H](CCC(=O)N[C@@H](CCN)C(=O)N[C@H](C(=O)N[C@@H](CN)C(=O)N[C@H]2CCNC(=O)[C@H]([C@@H](C)O)NC(=O)[C@H](CCN)NC(=O)[C@H](CCN)NC(=O)[C@H](CC(C)C)NC(=O)[C@@H](CC(C)C)NC(=O)[C@H](CCN)NC2=O)[C@@H](C)O)NC(=O)[C@H](CO)NC(=O)[C@H](Cc2ccc(O)cc2)NC1=O)C(C)C [Ex. 28] (I: Ac-V[Orn]YSE[dDab][hSer]WS[Tle][dDab] / II: [Dab]T[Dap][Dab][Dab][dL]L[Dab][Dab]T; lactam I:2-I:C, II:4-II:C; amide I:5-II:N)	0.125 µg/mL (≈ 0.0539 µM)	8 µg/mL (≈ 3.45 µM)	0.125 µg/mL (≈ 0.0539 µM)	0.125 µg/mL (≈ 0.0539 µM)	4 µg/mL (≈ 1.72 µM)	0.125 µg/mL (≈ 0.0539 µM)	8 µg/mL (≈ 3.45 µM)	0.25 µg/mL (≈ 0.108 µM)	<1%				
CC(=O)N[C@H](C(=O)N[C@H]1CC(=O)NCC[C@@H](C(=O)N[C@@H](CO)C(N)=O)NC(=O)[C@H](C(C)C)NC(=O)[C@H](CO)NC(=O)[C@H](Cc2c[nH]c3ccccc23)NC(=O)CNC(=O)[C@@H](CCN)NC(=O)[C@H](CCC(=O)N[C@@H](CCN)C(=O)N[C@H](C(=O)N[C@@H](CN)C(=O)N[C@H]2CCNC(=O)[C@H]([C@@H](C)O)NC(=O)[C@H](CCN)NC(=O)[C@H](CCN)NC(=O)[C@H](CC(C)C)NC(=O)[C@@H](CC(C)C)NC(=O)[C@H](CCN)NC2=O)[C@@H](C)O)NC(=O)[C@H](CO)NC(=O)[C@H](Cc2ccc(O)cc2)NC1=O)C(C)C [Ex. 292] (I: Ac-VDYSE[dDab]GWSV[Dab]S-NH2 / II: [Dab]T[Dap][Dab][Dab][dL]L[Dab][Dab]T; lactam I:2-I:11, II:4-II:C; amide I:5-II:N)	0.0625 µg/mL (≈ 0.0266 µM)	4 µg/mL (≈ 1.7 µM)	1 µg/mL (≈ 0.426 µM)	0.25 µg/mL (≈ 0.106 µM)	0.5 µg/mL (≈ 0.213 µM)	0.125 µg/mL (≈ 0.0532 µM)	1 µg/mL (≈ 0.426 µM)	0.125 µg/mL (≈ 0.0532 µM)	<1%				
